The structures appear in SMILES notation. ± gives the expanded uncertainty stated by the source.

Series [1] is described as follows: refractive index (Na D-line) (dimensionless). As to conditions: 101.33 kPa, Liquid, Standard Abbe refractometry.
The conditions of series [2]: Liquid; for mass density: 101.33 kPa.
[3] abbreviates: 298.15 K, Vibrating tube method.

The refractive index is a measure of how strongly the sample bends light. Broadly, the mass density is the mass of a sample divided by its volume. A word on the vapor or sublimation pressure: it is the pressure of vapour in equilibrium with the condensed phase. For the compound `CC(=O)CC(C)=O` [2,4-pentanedione], the refractive index in series [1] (293.15 K) is reported as 1.4511 ± 0.0008. Besides, the mass density in series [2] (setting [3]) is 972 ± 2 kg/m3. For the same compound, in series [2] (409.35 K), the “vapor or sublimation pressure” value stood at 95.5 ± 4 kPa.

With `COC(C)(C)C` [2-methoxy-2-methylpropane], the refractive index in series [1] (293.15 K) came out at 1.369 ± 0.0008. The mass density in series [2] (303.15 K, Vibrating tube method) is 742 ± 2 kg/m3. The “vapor or sublimation pressure” value in series [2] (326.45 K) amounted to 95.5 ± 4 kPa.

As for `CC#N` [acetonitrile], the refractive index in series [1] (298.15 K) is reported as 1.3416 ± 0.0008. Also, in series [2] (298.15 K), the mass density was found to be 776.5 ± 2 kg/m3. Besides, the “vapor or sublimation pressure” value in series [2] (352.15 K) and in series [2] (352.55 K) was 95.5 ± 4 kPa throughout.

Regarding `COc1ccccc1` [anisole], the refractive index in series [1] (298.15 K) came to 1.5142 ± 0.0008. Also, in series [2] (setting [3]), the mass density came to 989.3 ± 2 kg/m3. Further, the “vapor or sublimation pressure” value in series [2] (424.65 K) is 95.5 ± 4 kPa.

For the compound `Brc1ccccc1` [bromobenzene], the refractive index in series [1] (298.15 K) is reported as 1.5571 ± 0.0008. Further, the mass density in series [2] (setting [3]) is 1488.3 ± 2 kg/m3. In addition, the “vapor or sublimation pressure” value in series [2] (427.05 K) worked out at 95.5 ± 4 kPa.

Turning to `CC(C)O` [propan-2-ol], the refractive index in series [1] (298.15 K) is 1.3751 ± 0.0008. For the same compound, in series [2] (setting [3]), the mass density came to 781.3 ± 2 kg/m3. For the same compound, the “vapor or sublimation pressure” value in series [2] (354.05 K) is on record as 95.5 ± 4 kPa.

As for `CCO[Si](OCC)(OCC)OCC` [tetraethoxysilane], the refractive index in series [1] (298.15 K) was 1.3825 ± 0.0008. Further, the mass density in series [2] (setting [3]) amounted to 933.4 ± 2 kg/m3. Also, the “vapor or sublimation pressure” value in series [2] (439.55 K) was 95.5 ± 4 kPa.

The record behind these values is the NIST ThermoML archive (doi:10.1016/j.jct.2007.03.007).
